Measured values taken from PubChem BioAssay AID2060499 (Molecular Pharmacology Branch, DTP, NCI, 2025).

Test system: 777334-354-R2-J4-PDC tumor spheroids with HUVEC/MSC, viability
Assay: Anticancer human tumor 777334-354-R2-J4-PDC patient-derived pancreatic adenocarcinoma cell line growth inhibition [GQUAD]
Conditions: for IC50: curve of first compound; for viability, T/C: stronger effect = lower value
Procedure, shortened: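 Viability of tumor cells grown as complex spheroids with endothelial and stromal cells, exposed to drug combinations. Top concentration at or near clinical Cmax (else 10 microM), diluted in half-log increments.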

[1] = second compound 0.0316 µM, first compound 0.0316 µM
[2] = second compound 0.0316 µM, first compound 0.316 µM
[3] = second compound 0.1 µM, first compound 0.0316 µM
[4] = second compound 0.1 µM, first compound 0.316 µM
[5] = second compound 0.316 µM, first compound 0.0316 µM
[6] = second compound 0.316 µM, first compound 0.316 µM
[7] = second compound 1 µM, first compound 0.0316 µM
[8] = second compound 1 µM, first compound 0.316 µM
[9] = second compound 3.16 µM, first compound 0.0316 µM
[10] = second compound 3.16 µM, first compound 0.316 µM
[11] = second compound 10 µM, first compound 0.0316 µM
[12] = second compound 10 µM, first compound 0.316 µM
[13] = second compound 0.0316 µM, first compound 0.1 µM
[14] = second compound 0.0316 µM, first compound 1 µM
[15] = second compound 0.0316 µM, first compound 3.16 µM
[16] = second compound 0.0316 µM, first compound 10 µM
[17] = second compound 0.1 µM, first compound 0.1 µM
[18] = second compound 0.1 µM, first compound 1 µM
[19] = second compound 0.1 µM, first compound 3.16 µM
[20] = second compound 0.1 µM, first compound 10 µM
[21] = second compound 0.316 µM, first compound 0.1 µM
[22] = second compound 0.316 µM, first compound 1 µM
[23] = second compound 0.316 µM, first compound 3.16 µM
[24] = second compound 0.316 µM, first compound 10 µM
[25] = second compound 1 µM, first compound 0.1 µM
[26] = second compound 1 µM, first compound 1 µM
[27] = second compound 1 µM, first compound 3.16 µM
[28] = second compound 1 µM, first compound 10 µM
[29] = second compound 3.16 µM, first compound 0.1 µM
[30] = second compound 3.16 µM, first compound 1 µM
[31] = second compound 3.16 µM, first compound 3.16 µM
[32] = second compound 3.16 µM, first compound 10 µM
[33] = second compound 10 µM, first compound 0.1 µM
[34] = second compound 10 µM, first compound 1 µM
[35] = second compound 10 µM, first compound 3.16 µM
[36] = second compound 10 µM, first compound 10 µM
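Further: spheroids exposed to compounds for 7 days before readout.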

`CC[C@@]1(O)C(=O)OCc2c1cc1n(c2=O)Cc2cc3c(CN(C)C)c(O)ccc3nc2-1` + Cc1[nH]c2ccc(F)cc2c1-c1nc2c3cccnc3c3ncccc3c2[nH]1 was tested, and the IC50 (second compound 0.0316 µM) was 218 nM, the IC50 (second compound 0.1 µM) was 191 nM and the IC50 (second compound 0.316 µM) was 200 nM. The IC50 (second compound 1 µM) was 124 nM, the IC50 (second compound 3.16 µM) was < 0.999 nM and the IC50 (second compound 10 µM) was < 0.999 nM. The viability, T/C (second compound 0.0316 µM, first compound 0.000999 µM) was 103%, the viability, T/C (second compound 0.0316 µM, first compound 0.00316 µM) was 102% and the viability, T/C (second compound 0.0316 µM, first compound 0.00999 µM) was 104%. For the same molecule, the viability, T/C [1] was 82.3%, the viability, T/C (second compound 0.0316 µM, first compound 0.0999 µM) was 69.6% and the viability, T/C [2] was 41.3%. The viability, T/C (second compound 0.1 µM, first compound 0.000999 µM) was 100%, the viability, T/C (second compound 0.1 µM, first compound 0.00316 µM) was 97.1% and the viability, T/C (second compound 0.1 µM, first compound 0.00999 µM) was 111%. For the same molecule, the viability, T/C [3] was 96%, the viability, T/C (second compound 0.1 µM, first compound 0.0999 µM) was 61% and the viability, T/C [4] was 41.5%. The viability, T/C (second compound 0.316 µM, first compound 0.000999 µM) was 89.5%, the viability, T/C (second compound 0.316 µM, first compound 0.00316 µM) was 95.5% and the viability, T/C (second compound 0.316 µM, first compound 0.00999 µM) was 96.4%. The viability, T/C [5] was 85.5%, the viability, T/C (second compound 0.316 µM, first compound 0.0999 µM) was 61.7% and the viability, T/C [6] was 42.4%. For the same molecule, the viability, T/C (second compound 1 µM, first compound 0.000999 µM) was 79.3%, the viability, T/C (second compound 1 µM, first compound 0.00316 µM) was 83.6% and the viability, T/C (second compound 1 µM, first compound 0.00999 µM) was 85.9%. It also gave a viability, T/C [7] of 83.6%, a viability, T/C (second compound 1 µM, first compound 0.0999 µM) of 53.9% and a viability, T/C [8] of 33%. For the same molecule, the viability, T/C (second compound 3.16 µM, first compound 0.000999 µM) was 34.2%, the viability, T/C (second compound 3.16 µM, first compound 0.00316 µM) was 41.7% and the viability, T/C (second compound 3.16 µM, first compound 0.00999 µM) was 35.7%. For the same molecule, the viability, T/C [9] was 28.4%, the viability, T/C (second compound 3.16 µM, first compound 0.0999 µM) was 15.9% and the viability, T/C [10] was 14.6%. For the same molecule, the viability, T/C (second compound 10 µM, first compound 0.000999 µM) was 28.4%, the viability, T/C (second compound 10 µM, first compound 0.00316 µM) was 38.5% and the viability, T/C (second compound 10 µM, first compound 0.00999 µM) was 30.7%. The viability, T/C [11] was 20.2%, the viability, T/C (second compound 10 µM, first compound 0.0999 µM) was 13.3% and the viability, T/C [12] was 11.3%.
`COc1cc(C2c3cc4c(cc3C(OC3OC5COC(C)OC5C(O)C3O)C3COC(=O)C23)OCO4)cc(OC)c1O` (stereo not drawn) + Cc1[nH]c2ccc(F)cc2c1-c1nc2c3cccnc3c3ncccc3c2[nH]1 was tested, and the IC50 (second compound 0.0316 µM) was 6310 nM, the IC50 (second compound 0.1 µM) was 7250 nM and the IC50 (second compound 0.316 µM) was 5370 nM. For the same molecule, the IC50 (second compound 1 µM) was 3270 nM, the IC50 (second compound 3.16 µM) was < 31.6 nM and the IC50 (second compound 10 µM) was < 31.6 nM. It also gave a viability, T/C [1] of 95.9%, a viability, T/C [13] of 91% and a viability, T/C [2] of 90.1%. The viability, T/C [14] was 71.4%, the viability, T/C [15] was 64.4% and the viability, T/C [16] was 41.5%. The viability, T/C [3] was 104%, the viability, T/C [17] was 91.7% and the viability, T/C [4] was 90.2%. For the same molecule, the viability, T/C [18] was 72.1%, the viability, T/C [19] was 63.4% and the viability, T/C [20] was 44.7%. The viability, T/C [5] was 72.8%, the viability, T/C [21] was 88.6% and the viability, T/C [6] was 84.1%. For the same molecule, the viability, T/C [22] was 80%, the viability, T/C [23] was 58.8% and the viability, T/C [24] was 39.7%. The viability, T/C [7] was 89.5%, the viability, T/C [25] was 78.7% and the viability, T/C [8] was 73.5%. The viability, T/C [26] was 63.6%, the viability, T/C [27] was 54.1% and the viability, T/C [28] was 32.3%. The viability, T/C [9] was 36.6%, the viability, T/C [29] was 47.1% and the viability, T/C [10] was 33.7%. It also gave a viability, T/C [30] of 22.4%, a viability, T/C [31] of 22.2% and a viability, T/C [32] of 15.9%. It also gave a viability, T/C [11] of 32.6%, a viability, T/C [33] of 22.6% and a viability, T/C [12] of 27.6%. For the same molecule, the viability, T/C [34] was 15.1%, the viability, T/C [35] was 16% and the viability, T/C [36] was 12%.
`COc1cccc2c1C(=O)c1c(O)c3c(c(O)c1C2=O)CC(O)(C(=O)CO)CC3OC1CC(N)C(O)C(C)O1` (stereo not drawn) + Cc1[nH]c2ccc(F)cc2c1-c1nc2c3cccnc3c3ncccc3c2[nH]1 gave an IC50 (second compound 0.0316 µM) of 915 nM, an IC50 (second compound 0.1 µM) of 878 nM and an IC50 (second compound 0.316 µM) of 923 nM. The IC50 (second compound 1 µM) was 646 nM, the IC50 (second compound 3.16 µM) was < 31.6 nM and the IC50 (second compound 10 µM) was < 31.6 nM. It also gave a viability, T/C [1] of 102%, a viability, T/C [13] of 83.2% and a viability, T/C [2] of 80.3%. The viability, T/C [14] was 47.1%, the viability, T/C [15] was 22.8% and the viability, T/C [16] was 15%. It also gave a viability, T/C [3] of 93.3%, a viability, T/C [17] of 80.5% and a viability, T/C [4] of 69.6%. The viability, T/C [18] was 49.2%, the viability, T/C [19] was 25.2% and the viability, T/C [20] was 14.9%. It also gave a viability, T/C [5] of 74.8%, a viability, T/C [21] of 82.6% and a viability, T/C [6] of 71.2%. For the same molecule, the viability, T/C [22] was 46.8%, the viability, T/C [23] was 28.4% and the viability, T/C [24] was 17.4%. The viability, T/C [7] was 74.8%, the viability, T/C [25] was 75.8% and the viability, T/C [8] was 61.1%. It also gave a viability, T/C [26] of 42.9%, a viability, T/C [27] of 22.5% and a viability, T/C [28] of 13.6%. It also gave a viability, T/C [9] of 40.4%, a viability, T/C [29] of 27.8% and a viability, T/C [10] of 24.8%. It also gave a viability, T/C [30] of 16.7%, a viability, T/C [31] of 13.9% and a viability, T/C [32] of 9.55%. The viability, T/C [11] was 32%, the viability, T/C [33] was 23% and the viability, T/C [12] was 22.6%. It also gave a viability, T/C [34] of 16.5%, a viability, T/C [35] of 14.9% and a viability, T/C [36] of 10.9%.
For `Nc1ccn(C2OC(CO)C(O)C2(F)F)c(=O)n1` (stereo not drawn) + Cc1[nH]c2ccc(F)cc2c1-c1nc2c3cccnc3c3ncccc3c2[nH]1, the IC50 (second compound 0.0316 µM) was 931 nM, the IC50 (second compound 0.1 µM) was 1140 nM and the IC50 (second compound 0.316 µM) was 809 nM. The IC50 (second compound 1 µM) was 466 nM, the IC50 (second compound 3.16 µM) was < 31.6 nM and the IC50 (second compound 10 µM) was < 31.6 nM. The viability, T/C [1] was 88%, the viability, T/C [13] was 67.5% and the viability, T/C [2] was 65%. For the same molecule, the viability, T/C [14] was 46.3%, the viability, T/C [15] was 41.6% and the viability, T/C [16] was 34%. The viability, T/C [3] was 90.2%, the viability, T/C [17] was 74% and the viability, T/C [4] was 69.2%. The viability, T/C [18] was 47.6%, the viability, T/C [19] was 41.3% and the viability, T/C [20] was 32.1%. For the same molecule, the viability, T/C [5] was 75.5%, the viability, T/C [21] was 84.7% and the viability, T/C [6] was 59.4%. It also gave a viability, T/C [22] of 49.7%, a viability, T/C [23] of 39.8% and a viability, T/C [24] of 35.5%. The viability, T/C [7] was 73.5%, the viability, T/C [25] was 68% and the viability, T/C [8] was 52.6%. For the same molecule, the viability, T/C [26] was 40.7%, the viability, T/C [27] was 39.4% and the viability, T/C [28] was 29.3%. For the same molecule, the viability, T/C [9] was 36.6%, the viability, T/C [29] was 31.7% and the viability, T/C [10] was 30.7%. It also gave a viability, T/C [30] of 13.8%, a viability, T/C [31] of 13.6% and a viability, T/C [32] of 12.9%. For the same molecule, the viability, T/C [11] was 30%, the viability, T/C [33] was 26.9% and the viability, T/C [12] was 16.2%. For the same molecule, the viability, T/C [34] was 10.3%, the viability, T/C [35] was 8.66% and the viability, T/C [36] was 7.59%.
